Assay results taken from patent US9084766B2, “Compounds and compositions for targeting cancer stem cells” (Boston Biomedical, Inc., priority 2010, dated 2015).
Entries after “also recorded” stand apart in the source; their conditions may differ.

Key:
[1] = system: FaDu human head and neck cancer; experiment: Antitumor activity in subcutaneous FaDu xenograft mice; type: in vivo
Description: In the studies shown in FIG. 8, immunosuppressed mice with established subcutaneous FaDu human head and neck cancer were given indicated amount of hand grounded Compound 1 with Crystal Form 1, or vehicle control orally (po). Compound 1 was formulated in […]™. All regimens were administered daily (qd). Tumor sizes were evaluated periodically during treatment.
In the study shown in FIG. 9, immunosuppressed mice with established subcutaneous FaDu human head and neck cancer were given 100 mg/kg of micronized Compound 1 produced with the synthetic process described in FIGS. 5A and 5B (first crop), or vehicle control orally (po). Compound 1 was formulated in […]™. All regimens were administered daily (qd). Tumor sizes were evaluated periodically during treatment. Form 2 has been successfully manufactured by a current good manufacturing practice (cGMP) process and received approval from the FDA and Health Canada to be used in clinical trials.
Form 3 can only be generated from Form 1 using a specially designed slurry process described herein. […] In the study shown in FIG. 10, immunosuppressed mice with established subcutaneous FaDu human head and neck cancer were given 200 mg/kg of Compound 1 with hand grounded Crystal Form 1 or Form 3, or vehicle control orally (po). Compound 1 was formulated in gelucire. All regimens were administered daily (qd). Tumor sizes were evaluated periodically during treatment. This polymorph has been successfully manufactured by a cGMP process and received approval from FDA and Health Canada to be used in clinical trials.
The anti-tumor activity of particles of Compound 1 with different particle size ranges is illustrated in FIG. 15, and the pharmacokinetic data for particles of Compound 1 with different particle size ranges is illustrated in FIGS. 16-18. In the study shown in FIG. 15, immunosuppressed mice with established subcutaneous FaDu human head and neck cancer were given indicated amount of Compound 1 with indicated particle size, or vehicle control orally (po). All regimens were administered daily (qd). Tumor size was evaluated periodically.
In an experiment, a formulation of Compound 1 particles sieved to 160 micron was tested in the model of immunosuppressed mice with established subcutaneous xenograft FaDu human head and neck cancer. The pharmaceutical composition was formulated as 80 mg/ml in 9% Gelucire, 20% Vitamin E TPGS (Table 3). […] All regimens were administered daily (qd).
In an experiment, Compound 1 crystals were milled to a median particle size of about 20 micron. […] All regimens were administered daily (qd).
FaDu human head and neck cancer cells were inoculated subcutaneously into female athymic nude mice (6×10^6 cells/mouse) and allowed to form palpable tumors. When the tumors reached approximately 100 mm^3, the animals were treated orally (po) with Compound 1 at 100 mg/kg or vehicle control daily. Compound 1 was formulated at 10 mg/ml in 20% gelucire. Tumors and bodyweights were measured throughout treatment (FIG. 15).
(§1) Daily examinations into the health status of each animal were also conducted. Body weights were checked every three days. Food and water was supplied daily according to the animal husbandry procedures of the facility. Treatment producing>20% lethality and or >20% net body weight loss were considered toxic. Results are expressed as mean tumor volume (mm^3)±SE. P Values<0.05 are considered to be statistically relevant.
Male or female athymic nude mice 4-5 weeks (Charles River Laboratories, Wilmington, Mass.), were acclimated to the animal housing facility for at least 1 week before study initiation. […]

CD34+ BM Myeloid = experiment: IC50 versus treatment time, CD34+ BM Myeloid; type: cell-based; conditions: normal cells CD34+ BM Myeloid, treatment time 12-24 h
Description: (§2) The studies described herein discovered counter-intuitively that cancer cells and cancer stem cells requires much shorter exposure than normal cells to be killed by Compound 1. Normal cells can tolerate up to 24 hours of exposure to Compound 1. Furthermore, the studies here discovered that normal cells can recover after a short period of no-drug exposure, while cancer cells cannot recover once they are exposed to a certain concentration of the Compound 1 for at least 2 hours. Based on these studies, a special pharmacokinetic exposure [termed selective pharmacokinetic profile (SPP), or preferred pharmacokinetic profile (PPP), which is used interchangeably in this publication] was designed for Compound 1 using the data shown below in Table 14 for achieving selective antitumor activity in patients (FIG. 24).

[2] = Compound concentration in patient urine; type: in vivo, human
[3] = Pharmacokinetics in mice of particle size formulations; type: in vivo; conditions: particle size 125-150 micron versus 2 and 20 micron, 100 mg/kg oral, 20% Gelucire 44/14 and 1% Tween 80
Description: In an experiment, micronized Compound 1 prepared in step 6 of Example 2 with a mean particle size of 2 micron, 20 microns, 150 microns were formulated as suspensions in 20% Gelucire 44/14 and 1% Tween 80 and administered orally to mice at 100 mg/kg. Each time point represents the average of 3 mice (FIG. 16).

[4] = Toxicity / body weight in tumor-bearing mice; type: in vivo
Description: All regimens were administered daily (qd). Body weights were evaluated periodically during treatment. Each point represents the mean±SEM of eight tumors. […] All regimens were administered daily (qd). Body weights were evaluated periodically during treatment. Each point represents the mean±SEM of eight tumors.
as §1

PMBCs = experiment: IC50 versus treatment time, PMBCs; type: cell-based; conditions: normal cells PMBCs
Description: as §2

[5] = composition of particle size less than 5 micron, mice

Structure (SMILES): CC(=O)c1cc2c(o1)C(=O)c1ccccc1C2=O [Compound 1, 2-acetyl-4H,9H-naphtho[2,3-b]furan-4,9-dione]
- anti-tumor activity [1, 5]: potent anti-tumor activity
- efficacy ([1]; composition with particle size greater than 20 micron, mice): no or weak efficacy
- efficacy ([1]; median particle size about 2 micron, 100 mg/kg po daily, 20% gelucire, 100 mg/kg): surprisingly enhanced anti-tumor activity; also recorded: good efficacy; also recorded: strong efficacy; also recorded: potent efficacy
- efficacy ([1]; median particle size about 2 micron, 100 mg/kg po daily, 20% gelucire, listed as naphthofuran compound, 100 mg/kg): dramatically enhanced efficacy
- efficacy ([1]; median particle size about 20 micron, 200 mg/kg daily oral, 200 mg/kg): weak or moderate efficacy
- efficacy ([1]; median particle size about 20 micron, 200 mg/kg daily oral, listed as naphthofuran compound, 200 mg/kg): relative weak
- anti-tumor activity ([1]; nanoparticles, D50 about 100 nanometers (110.4 nanometers)): reduction of anti-tumor activity
- efficacy ([1]; particles sieved to 160 micron (150 micron), 400 mg/kg daily oral, 400 mg/kg): no efficacy
- efficacy ([1]; particles sieved to 160 micron (150 micron), 400 mg/kg daily oral, listed as naphthofuran compound, 400 mg/kg): no efficacy
- IC50 (CD34+ BM Myeloid): > 30 µM
- BBI608 concentration in patient urine ([2]; patient 7, total daily dose 320 mg, 120-240 min post dose): 4.3 µM
- BBI608 concentration in patient urine ([2]; patient 7, total daily dose 320 mg, 360-480 min post dose): 23.1 µM
- BBI608 concentration in patient urine ([2]; patient 8, total daily dose 320 mg, 120-240 min post dose): 7.9 µM
- BBI608 concentration in patient urine ([2]; patient 8, total daily dose 320 mg, 360-480 min post dose): 1.8 µM
- BBI608 concentration in patient urine ([2]; patient 9, total daily dose 320 mg, 120-240 min post dose): 8.9 µM
- BBI608 concentration in patient urine ([2]; patient 9, total daily dose 320 mg, 360-480 min post dose): 23.6 µM
- BBI608 concentration in patient urine ([2]; patient 10, total daily dose 320 mg, 120-240 min post dose): 22.7 µM
- BBI608 concentration in patient urine ([2]; patient 10, total daily dose 320 mg, 360-480 min post dose): 26.2 µM
- BBI608 concentration in patient urine ([2]; patient 11, total daily dose 320 mg, 120-240 min post dose): 1.8 µM
- BBI608 concentration in patient urine ([2]; patient 11, total daily dose 320 mg, 360-480 min post dose): 4.5 µM
- BBI608 concentration in patient urine ([2]; patient 12, total daily dose 400 mg, 120-240 min post dose): 4.11 µM
- BBI608 concentration in patient urine ([2]; patient 12, total daily dose 400 mg, 360-480 min post dose): 3.86 µM
- BBI608 concentration in patient urine ([2]; patient 14, total daily dose 400 mg, 120-240 min post dose): 1.42 µM
- BBI608 concentration in patient urine ([2]; patient 14, total daily dose 400 mg, 360-480 min post dose): 5 µM
- BBI608 concentration in patient urine ([2]; patient 15, total daily dose 600 mg, 120-240 min post dose): 3.1 µM
- BBI608 concentration in patient urine ([2]; patient 15, total daily dose 600 mg, 360-480 min post dose): 10.65 µM
- BBI608 concentration in patient urine ([2]; patient 17, total daily dose 600 mg, 120-240 min post dose): 1.66 µM
- BBI608 concentration in patient urine ([2]; patient 17, total daily dose 600 mg, 360-480 min post dose): 45.35 µM
- BBI608 concentration in patient urine ([2]; patient 18, total daily dose 600 mg, 120-240 min post dose): 2.41 µM
- BBI608 concentration in patient urine ([2]; patient 18, total daily dose 600 mg, 360-480 min post dose): 6.3 µM
- BBI608 concentration in patient urine ([2]; patient 20, total daily dose 800 mg, 120-240 min post dose): 6.17 µM
- BBI608 concentration in patient urine ([2]; patient 20, total daily dose 800 mg, 360-480 min post dose): 118.25 µM
- BBI608 concentration in patient urine ([2]; patient 21, total daily dose 800 mg, 120-240 min post dose): 0.42 µM
- BBI608 concentration in patient urine ([2]; patient 21, total daily dose 800 mg, 360-480 min post dose): 7.42 µM
- BBI608 concentration in patient urine ([2]; patient 23, total daily dose 800 mg, 120-240 min post dose): 2.51 µM
- BBI608 concentration in patient urine ([2]; patient 23, total daily dose 800 mg, 360-480 min post dose): 11.97 µM
- plasma exposure [3]: lower level of exposure
- mice died during the treatment ([4]; about 90% pure, FaDu experiment (upper panel)): 4 mice
- mice died during the treatment ([4]; about 90% pure, MDA-231 experiment (lower panel)): 3 mice
- toxicity ([4]; about 90% pure, in GELUCIRE, po qd, FaDu or MDA-231 bearing mice (FIG. 13)): Significant toxicity
- toxicity [4, 5]: no observed toxicity
- tolerability / toxicity ([4]; higher purity (about 95% or greater), po qd, FaDu or MDA-231 bearing mice (FIG. 14)): well-tolerated and showed no signs of toxicity
- IC50 (PMBCs; treatment time 12-24 h): 14 µM
- IC50 (PMBCs; treatment time 72 h): 3 µM
